Experimental data published in PMC7822874, “Chemoprotective antimalarials identified through quantitative high-throughput screening of Plasmodium blood and liver stage parasites” (Scientific Reports, 2021).
Read-outs that look alike come from different tables or passages of the source.

Experiments:
[1] = tested on: Plasmodium falciparum Dd2 asexual blood stage parasites; assay: microbe, parasite or virus in culture; design: species or system Plasmodium falciparum Dd2 in human erythrocytes; single determination (one 11-point concentration-response curve); settings: Plasmodium falciparum, DD2, Erythrocyte, 72 h; read-out: AC50
in vitro [2] = settings: human, HepG2-A16-CD81EGFP cells, uninfected
in vitro [3] = settings: human, n = 1
[4] = tested on: P. berghei-ANKA-GFP-LucCON liver stage parasites in HepG2-A16-CD81EGFP cells; assay: P. berghei liver stage Pb-Luc assay, Method 1 (UCSD, 1536-well); type: cell-based, Plasmodium berghei; settings: Method 1; for Max Resp (signal direction of the dose response): Decrease = decreasing P. berghei viability with dose, Increase = increasing signal, Inactive = no dose response
[5] = Hill fit, 50% of maximum activity response, read-out: AC50
[6] = log10 of molar AC50 from Hill fit
[7] = Plasmodium berghei, Hill fit, 50% of maximum activity response, read-out: AC50
[8] = Plasmodium berghei, log10 of molar AC50 from Hill fit, read-out: Log AC50 (converted)

Row | SMILES | AC50 [1] | CC50 at 48 h (in vitro [3]; HepG2 cells) | further results
1 | CCOC(=O)C1CCN(C(=O)c2c(C)oc3c2C(=O)c2ccccc2C3=O)CC1 [MLS000724686-01] | 0.531 µM | 15.3 µM | viability at 66 h (in vitro [2]): 103%
2 | COc1ccccc1NS(=O)(=O)c1cc(NC(=O)c2ccc(Cl)nc2)ccc1Cl [MLS000417369-01] |  | 19.3 µM | Max Resp (signal direction of the dose response) [4]: Decrease; AC50 [4, 5]: 2510 nM; Log AC50 (M) [4, 6]: -5.600 M; AC50 [4, 7]: 2000 nM; AC50 [4, 8]: 2000 nM; viability at 66 h (in vitro [2]): 96.5%
3 | CCOC(=O)c1cnc(-n2nc(C)cc2C)nc1NC1CCCC1 [MLS000333072-01] | 8.41 µM | 17.2 µM | Max Resp (signal direction of the dose response) [4]: Inactive; viability at 66 h (in vitro [2]): 107%
4 | COc1ccc(Nc2cc(O)c3ncccc3c2)cc1 [NCGC00183797-01] | 0.75 µM | 19.3 µM | viability at 48 h, 1 µM (in vitro [2]): 89%; viability at 48 h, 3 µM (in vitro [2]): 73%
5 | N=c1ccn(Cc2ccc(Cl)cc2Cl)cc1 [MLS000554049-01] | 8.41 µM | 19.3 µM | Max Resp (signal direction of the dose response) [4]: Inactive; viability at 48 h (in vitro [2]): 89.2%; viability at 48 h, 1 µM (in vitro [2]): 89.2%
6 | c1ccc(CCNc2ccnc3cc4ccccc4cc23)cc1 [MLS000717866-01] | 1.68 µM | 10.9 µM | Max Resp (signal direction of the dose response) [4]: Decrease; AC50 [4, 5]: 501 nM; Log AC50 (M) [4, 6]: -6.300 M; AC50 [4, 7]: 398 nM; AC50 [4, 8]: 398 nM; viability at 66 h (in vitro [2]): 93.8%
7 | COc1ccccc1N1CCN(C[C@@H]2C=C(C)[C@H](Cc3nnc(-c4cncn4C)o3)C[C@H]2C(C)C)CC1 [NCGC00392622-01] | 10.6 µM | 24.3 µM | 
8 | CCCC(=O)NC(c1ccc(C(C)C)cc1)c1ccc2cccnc2c1O (stereo not drawn) [MLS001211083-01] | 13.3 µM | 12.2 µM | 
9 | O=C1NC2(CCCN(Cc3ccccn3)C2)COc2ccccc21 (stereo not drawn) [NCGC00477540-01] | 4.85 µM |  | CC50 at 48 h (in vitro [3]; hepg2): 3.14 µM
10 | CCOC(=O)c1c(C)[nH]c2c1-c1ccccc1C(=O)C2=O [MLS000701140-01] | 2.37 µM | 10.9 µM | 
11 | Cc1[nH]n(-c2ccccc2)c(=O)c1/C=N/Nc1nncc(-c2ccccc2)n1 [MLS000579075-01] | 4.22 µM | 13.7 µM | 
12 | COc1ccc(C2C=C(c3ccc(F)cc3)Nc3nc(-c4ccc(Cl)cc4)nn32)cc1 (stereo not drawn) [NCGC00100513-01] | 0.75 µM | 27.3 µM | 
13 | Cc1cc(Nc2sc(C(=O)c3ccc(F)cc3)c(N)c2C(=O)Nc2ccc(F)cc2)ccc1Cl [NCGC00138324-01] | 0.75 µM | 2.73 µM | 
14 | O=C(NCCNc1ccnc2cc(Cl)ccc12)c1ccccc1F [MLS001163130-01] | 1.68 µM | 27.3 µM | viability at 48 h, 1 µM (in vitro [2]): 106%; viability at 48 h, 3 µM (in vitro [2]): 86%
15 | N=c1ccn(CC(=O)c2ccc(-c3ccccc3)cc2)cc1 [MLS000698051-01] | 0.944 µM | 24.3 µM | 
16 | CCCC(=O)NC(c1ccccc1)c1ccc2cccnc2c1O (stereo not drawn) [MLS001204078-01] | 6.68 µM | 12.2 µM | 
17 | Nc1nc(-c2ccccn2)nc(N)c1Cc1ccc(Cl)cc1Cl [MLS000691892-01] | 7.5 µM | 13.7 µM | 
18 | C[n+]1c2ccccc2nc2ccc(NCCO)cc21.[O-][Cl+3]([O-])([O-])[O-] | 1.19 µM |  | CC50 at 48 h (in vitro [3]; hepg2): 13.7 µM
19 | c1ccc(CCNc2nc(-c3ccccn3)cs2)cc1 [MLS000708031-01] | 7.5 µM | 21.7 µM | 
20 | COc1cnc(-c2ccccn2)nc1NC(C)C [MLS000692222-01] | 5.31 µM | 15.3 µM | 
21 | O=C(Nc1cc(C(F)(F)F)cc(C(F)(F)F)c1)Nc1cnn(-c2ccc([N+](=O)[O-])cc2)c1C(F)(F)F [MLS000851511-01] | 6.68 µM | 10.9 µM | 
